Assay results from US20100048686A1, “Perfume Composition For Temperature Sense Control, Sense Control Article, Sense Control Method, And Perfume Map” (SHISEIDO CO., LTD., priority 2003, published 2010).

Tests used:
Type in all cases: in vivo, human
test subjects [1] = test: cream temperature sense and usability/skin feel with scented cotton versus no aroma; design: key to Absorption into skin / Youthfulness of skin / Stickiness of skin: five-point scale, 5 = I agree to 1 = I disagree; details: for Cream spreading (heavy) / Cream spreading (light) / Thickness of cream / Cream temp. sense (warm) / Cream temp. sense (cold) / Skin tightness / Absorption into skin / Firmness of skin / Non-stickiness of skin / Plumpness of skin / Skin freshness / Skin moistness / Skin smoothness / Skin suppleness / Stickiness of skin / Youthfulness of skin: average; for Cream spreading (heavy) / Cream spreading (light) / Thickness of cream / Absorption into skin / Firmness of skin / Non-stickiness of skin / Plumpness of skin / Skin freshness / Skin moistness / Skin smoothness / Skin suppleness / Stickiness of skin / Youthfulness of skin: five-point scale 5 to 1; for Cream temp. sense (warm): five-point scale 5 warm to 1 cold; for Cream temp. sense (cold): five-point scale, unscented cream, aroma smelled from cotton; for effect on temperature sense (raising or lowering) / perceived usability/skin feel, heavy-spreading or light-spreading / perceived usability/skin feel, moist or fresh: result in words; for Skin tightness: five-point scale 5 (I agree) to 1 (I disagree)
Method: Just as with the survey conducted for temperature sense above, 17 or 18 women 20 to 24 years of age were selected for this test, cotton to which no perfume had been applied was affixed to one arm, and cotton to which perfume had been applied was affixed to the other arm, the arms were each coated with an unscented cream while the subjected smelled the aroma of the cotton, and the subjectively sensed temperature of the cream was assessed on a five-point scale in which 5 was warm, 4 was somewhat warm, 3 was “can't say,” 2 was somewhat cold, and 1 was cold.
Next, the correlation of aroma-induced cosmetic temperature sense, usability, and how the cosmetic actually felt on the skin, and the correlation with the image of the aroma were tested for the above-mentioned 24 different raw material perfumes. […] The aroma image was assessed on a seven-point scale from 0 to 6, while the usability/skin feel was assessed on a five-point scale from 5 (“I agree”) to 1 (“I disagree”). In addition to assessing usability, the impression of the aroma of the perfume was also assessed at the same time. To prevent the perfume from modifying the cream, a method was employed in which the perfume component was not directly added to the cream, but was instead applied to the cotton and smelled.
The following wording was selected for usability/skin feel. • How well a cream spreads: light to heavy • Absorption into the skin: fast to slow • Makes the skin look youthful?: yes to no • Makes the skin feel sticky?: yes to no • Makes the skin feel fresh?: yes to no • Makes the skin feel moist?: yes to no • Makes the skin feel non-sticky?: yes to no • Makes the skin feel smooth?: yes to no • Makes the skin feel supple?: yes to no • Makes the skin feel tight?: yes to no • Each of these was assessed on a five-point-scale. • For impressions of aroma, words that readily express the characteristics of an aroma, and four different words (natural, rich, tender, and sharp) were selected as generic terms from among sensory adjectives and emotional adjectives used to express the five senses. Each generic term encompasses specific aroma impression words. For example, “natural” encompasses impression expressions such as transparent, bright, natural, [3] pure, etc.; “rich” encompasses thick, sultry, mature, glossy, sexy, etc.; “tender” encompasses mild, sweet, gentle, graceful, etc; and “sharp” encompasses bracing, sharp, cool, etc. […] However, the words used to express usability/skin feel and the words used to express impressions of aroma are nothing more than examples, and [the present invention] is not limited to or by these words.

test subjects [2] = test: subjectively sensed temperature of constant-temperature water on the hands while smelling an aroma; details: 28° C. water, seven-point scale 7 hot to 1 extremely cold, 12 test subjects
Method: As a result of various research, the inventors discovered that the aroma given off by a specific perfume component can change the temperature subjectively sensed by a person (temperature sense). 12 test subjects put there hands into water held at a constant temperature, and the subjectively sensed temperature of the water was assessed on a seven-point scale in which 7 was hot, 6 was warm, 5 was somewhat warm, 4 was “can't say,” 3 was somewhat cold, 2 was cold, and 1 was extremely cold. The same 12 test subjects were asked to smell a peppermint aroma while once again putting their hands into water held at a constant temperature, and the subjectively sensed temperature of the water was assessed on a seven-point scale. The same experiment was repeated by raising the water temperature one degree at a time, and the testers looked for the temperature at which the assessment given under conditions of smelling the peppermint aroma was the same as the assessment given under conditions of no aroma at 28° C. […]
Also, to examine the change in temperature sense with and without aroma, the 12 test subjects put their hands in water with a temperature of 28° C., and the subjectively sensed temperature was assessed on a seven-point scale in the same manner as above. […]

test subjects [3] = test: temperature sense of a space (clear boxes with and without aroma); details: face put into box with aroma versus box without; FIG. 7; result in words
Description: Also, it is possible to change the temperature sense of a person located in a specific space by dispersing in that space, by volatilization or another such means, a perfume composition containing the above-mentioned perfume component capable of changing a person's temperature sense, and having the person smell the aroma. To test this, a clear box containing scented paper and another clear box containing unscented paper were readied, and an experiment was conducting by having a test subject put his or her face into each of the boxes and compare the temperature sense of the space. […] FIG. 5 is a graph of the assessment results, and it can be seen that the temperature sense of a person located in a space can be changed by aroma. When the perfume composition is dispersed in the space so that the person will smell it, the concentration of the aroma is preferably about 0.01 to 10 ppm. With peppermint oil, for instance, about 0.4 ppm is favorable. […] The test subject put his or her face into first one box and then the other and compared the temperature sense of the space. This experiment was conducted for three different aromas, namely, peppermint, bergamot, and vanillin. A lid 6 that could be opened and closed was provided to the top of each of the boxes 1 and 2. The test subjects and experiment conditions were the same as discussed above. […]

test subjects [4] = test: moisture content of the cheeks (corneometer) with scented cotton under nostrils; details: room temperature 23 degrees, humidity 46%
Method: (§1) 12 female test subjects 20 to 24 years of age were asked to wash their face and attach a piece of scented cotton under their nostrils, which was left alone for a few minutes at a room temperature of 23 degrees and a humidity of 46%, after which the moisture content (corneometer) and sebum content (sebumeter) of the cheeks were measured.

test subjects [5] = test: sebum content of the cheeks (sebumeter) with scented cotton under nostrils; details: room temperature 23 degrees, humidity 46%
Method: as §1

Molecule	Cream spreading (heavy) (test subjects [1])	Cream spreading (light) (test subjects [1])	Thickness of cream (test subjects [1])	Cream temp. sense (warm) (test subjects [1])	Cream temp. sense (cold) (test subjects [1])	effect on temperature sense (raising or lowering) (test subjects [1])	perceived usability/skin feel, heavy-spreading or light-spreading (test subjects [1])	perceived usability/skin feel, moist or fresh (test subjects [1])	other results
CCCCCCCC1CCC(=O)O1 (centres unmarked) [G, γ-undecalactone]	2.2	3.8	2.1	3.2	2.8	capable of raising temperature sense			
CC(C=O)Cc1ccc(C(C)(C)C)cc1 (stereo not drawn) [B, 4-tert-butyl-α-methylhydroxycinnamic aldehyde]	2.2	3.8	2.5	3.4	2.6	capable of raising temperature sense	light-spreading usability/skin feel	moist usability/skin feel	Skin tightness (test subjects [1]): 3.3; Absorption into skin (test subjects [1]): 3.5; Firmness of skin (test subjects [1]): 2.9; Non-stickiness of skin (test subjects [1]): 2.5; Plumpness of skin (test subjects [1]): 2.2; Skin freshness (test subjects [1]): 3.2; Skin moistness (test subjects [1]): 3.9; Skin smoothness (test subjects [1]): 3.8; Skin suppleness (test subjects [1]): 3.4; Stickiness of skin (test subjects [1]): 3.1; Youthfulness of skin (test subjects [1]): 3.8
CC1COCc2cc3c(cc21)C(C)(C)C(C)C3(C)C (centres unmarked) [4,6,6,7,8,8-hexamethyl-1,3,4,6,7,8-hexahydrocyclopentabenzopyran]						capable of raising temperature sense	light-spreading usability/skin feel	moist usability/skin feel	
CC1(C)CCCC2(C)C1CCC1(C)OCCC12 (stereo not drawn) [3α,6,6,9α-tetramethyldodecahydronaphtho[2,1-b]furan]						capable of raising temperature sense	light-spreading usability/skin feel	moist usability/skin feel	
Cc1ccc2c(c1)OCC(=O)CO2 [7-methyl-3,4-dihydro-(2H)-1,5-benzodioxepin-3-one]						capable of lowering temperature sense	light-spreading usability/skin feel	fresh usability/skin feel	
CC(=O)/C=C/C1=C(C)CCCC1(C)C [β-ionone]						capable of raising temperature sense	light-spreading usability/skin feel	moist usability/skin feel	
L-carvone									subjectively sensed temperature of the water, average assessment (test subjects [2]): 4
O=Cc1ccc2c(c1)OCO2 [heliotropine]						capable of raising temperature sense	light-spreading usability/skin feel	moist usability/skin feel	
Cc1occc(=O)c1O [maltol]						capable of raising temperature sense			
CC1=CC(C)C(C=O)CC1 (centres unmarked) [E, 2,4-dimethyl-3-cyclohexenyl carboxyaldehyde]	2.7	3.3	3.1	2.5	3.5	capable of lowering temperature sense	light-spreading usability/skin feel	fresh usability/skin feel	Skin tightness (test subjects [1]): 2.4; Absorption into skin (test subjects [1]): 2.9; Firmness of skin (test subjects [1]): 2.8; Non-stickiness of skin (test subjects [1]): 2.6; Plumpness of skin (test subjects [1]): 2.3; Skin freshness (test subjects [1]): 3.1; Skin moistness (test subjects [1]): 3.3; Skin smoothness (test subjects [1]): 3.8; Skin suppleness (test subjects [1]): 3.4; Stickiness of skin (test subjects [1]): 3.2; Youthfulness of skin (test subjects [1]): 3.7
COc1cc(C=O)ccc1O [C, vanillin]	3.1	2.9	2.8	4.1	1.9	capable of raising temperature sense			sense of warmth or cold inside the box (test subjects [3]): gave a warm sensation; Moisture content (test subjects [4]): 69.3 (increase); Sebum content (test subjects [5]): no difference attributable to aroma
COC(=O)c1ccccc1N=CCC(C)CCCC(C)(C)O (centres unmarked) [methyl-N-3,7-dimethyl-7-hydroxyoctylidene-anthranilate]						capable of lowering temperature sense	heavy-spreading usability/skin feel	fresh usability/skin feel	
CC(C)[C@@H]1CC[C@@H](C)C[C@H]1O [L-menthol]									subjectively sensed temperature of the water, average assessment (test subjects [2]): 4.125
